# Assay results taken from patent publication US6716846B2, “High affinity ligands for nociceptin receptor ORL-1” (Schering Corporation, priority 1998, dated 2004).
# Target: human ORL-1 receptor (Homo sapiens, UniProt P41146)
# Experiment: Agonist activity: stimulation of [35S]-GTPγS binding
# Assay type: biochemical
# Conditions: compound at 100 nM
# Sequence of human ORL-1 receptor (P41146 whole entry): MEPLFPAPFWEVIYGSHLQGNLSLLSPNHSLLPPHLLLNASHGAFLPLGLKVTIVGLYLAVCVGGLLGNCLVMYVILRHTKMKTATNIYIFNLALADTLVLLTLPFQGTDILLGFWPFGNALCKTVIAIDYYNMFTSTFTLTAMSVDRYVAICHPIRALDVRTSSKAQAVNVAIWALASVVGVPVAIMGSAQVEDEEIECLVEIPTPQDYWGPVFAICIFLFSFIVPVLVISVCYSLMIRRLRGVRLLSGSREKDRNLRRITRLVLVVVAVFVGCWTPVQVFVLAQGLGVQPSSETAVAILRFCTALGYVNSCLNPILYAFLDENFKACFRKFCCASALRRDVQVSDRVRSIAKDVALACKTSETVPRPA
structure (smiles),measurement,value
CNC(=O)NC1(c2ccccc2)CCN(C(c2ccccc2Cl)c2ccccc2Cl)CC1,activation at 0.1 µM,102%
